The test system of assay [1] is AFF1 and AFF4 occupancy on chromatin. The experiment in a line: ChIP-seq of AFF1 and AFF4 chromatin occupancy in HEK293T cells. Format: cell-based, human. Conditions: 6 hr. The text has this:
FIG. 1. Peptidomimetic identification of disruptors of the AFF4-CCNT1 interaction within the Super Elongation Complex. (A) Schematic for the identification of small molecule inhibitors of the AFF4-CCNT1 interaction using in silico high-throughput screening. Compounds from the ZINC database were docked with the AFF4-CCNT1 structure (4IMY) using a three-tier glide-docking algorithm, which led to 40 candidates. Residues forming the deep binding pocket of CCNT1 are labeled orange and residues of the AFF4 peptide are labeled red. (B) Validation screening identified KL-1 as a potential SEC disruptor using AlphaLISA screening. […] The Ki constants of both compounds were measured with the AlphaLISA assays. […] 5 μl, 10 and 20 μl cell lysates were loaded and the protein levels of AFF1, AFF4, CCNT1, CDK9 and Tubulin (load control) were determined by western blotting.
Chromatin Immunoprecipitation Sequencing. […] ChIP-seq reads were aligned to the Drosophila genome (UCSC dm3) or human genome (UCSC hgl9). Alignments were processed with Bowtie version 1.1.2, allowing only uniquely mapping reads with up to two mismatches within the 50 bp read. The resulting reads were extended to 150 bp toward the interior of the sequenced fragment and normalized to total reads aligned (reads per million, r.p.m.). […] P-values were calculated with a two-sided Kolmogorov-Smirnov test. […]

Assay [2] has as its system ELL2. The experiment in a line: Western blotting of ELL2 protein levels in 293T cells. In kind it is cell-based, human. The note with it: 20 μM, 6 hr. The text has this:
FIG. 10, related to FIG. 3. Disruption of SEC phenocopies slow Pol II mutants and reduces Pol II processivity. (A) Identification of the 1,057 genes with typical Pol II termination signals around the TES. Pol II signals from WT Pol II mutant expressing cells were K-means clustered into 5 groups with a window of 15 kb around the TES. The expressing genes from clusters with a typical Pol II termination signals were selected and plotted. (B) SEC inhibitor treatments of the WT Pol II mutant expressing cells lead to a Pol II phenotype similar to slower Pol II mutant expressing cells as viewed at the 3′-end of genes. (C-D) Time-dependent and dose-dependent shift of Pol II signals around the TES sites by KL-2 treatment (N=1,057). (E) Genome browser tracks of Serine 2 phosphorylated (Ser2P) Pol II at the SRSF1 gene in HEK293T cells treated with vehicle or SEC inhibitors. SEC inhibitor treatments result in increased Pol II occupancy at the promoter-proximal region and increased occupancy of Ser2P Pol II in the gene body. […] (H) SEC inhibition results in decreased protein levels of the SEC subunit ELL2. 293T cells were treated with 20 μM of the indicated inhibitors for 6 hr before harvesting cells for western blotting. (I-K) Depletion of ELL2 in HEK293T cells (I) results in apparent early termination of Pol II with reduced Pol II occupancy downstream of the PIM3 (J) and ACTB (K) annotated TES. […]
In general terms: In western blotting, separated proteins are transferred to a membrane and probed.

Assay [3] deals with MDA231-LM2 cells. Description: Colony formation of MDA231-LM2 cells in vitro. In kind it is cell-based. The note with it: 5 days. The procedure: FIG. 14, related to FIG. 7. SEC disruptors delay tumor progression and improve survival of MDA231-LM2 tumor mice. (A) KL-1 and KL-2 inhibit the colony formation of MDA231-LM2 cells in vitro. 5×10^3 MDA231-LM2 cells were seeded in 6-well plates and treated with KL-1 or KL-2 at the indicated doses for 5 days. Crystal violet staining was performed to stain the colonies. (B) KL-1 and KL-2 induce apoptosis in MDA231-LM2 cells. Bar graph depiction of Annexin V positive MDA231-LM2 cells after 24 hr of KL-1 and KL-2 treatments at the indicated concentrations. Data are represented as Mean+/−SD. […] Each individual line indicates the weights of each mouse during toxicity test.

SMILES strings stand for the structures.

Consider `COc1cccc(C(=O)CC(=O)C(=O)Nc2cc(Cl)ccc2C)c1` [KL-1, N-(5-chloro-2-methylphenyl)-4-oxo-4-(3-methoxyphenyl)-2-oxobutanamide], for which the “chromatin occupancy of AFF1 and AFF4” value in assay [1] was “decreased occupancy of AFF1 and AFF4”. Besides, the ELL2 protein levels result in assay [2] is “led to reduced ELL2 protein levels”. Moreover, the colony formation capability result in assay [3] was “could inhibit the colony formation capability”.

(Values after US11453640B2, “Small molecules for disrupting the super elongation complex and inhibiting transcription elongation for cancer therapy” (NORTHWESTERN UNIVERSITY, priority 2018, dated 2022).)
